Patent publication US20060003893A1, “Controlled release fertilizers employing ureaform compounds and processes for making same” (priority 2004, published 2006)

Assay: Controlled Release Soil Test (irrigated soil burial test)
Type: physicochemical
Source text: To measure the relative solubilities of the products in soil, an irrigated soil burial test (“Controlled Release Soil Test”) was devised such that granules could be retrieved for measurement of their nitrogen content. The following is a description of the test.
Controlled Release Soil Test
Procedure for Controlled Release Soil Test
• 1. Screen the sample to obtain −6+7 Tyler mesh granules for the test. • 2. Label a freezer container with the test description. • 3. Place the freezer container on the 1200 g balance and tare out. • 4. Place 300 g of potting soil with a 40% moisture content into the container and record the weight. • 5. Over the soil place two (2) pieces of fiberglass mesh with 14 meshes to the inch and 1/16 inch openings. • 6. Tare out the container with the soil and fiberglass mesh screens. • 7. Spread 5 grams of −6+7 Tyler mesh granules over the screen in a single layer and record the weight. • 8. Place a large square of fiberglass mesh over the granules, with a stainless steel screen cut to fit over it, so that the shape of the container has been mirrored. • 9. Once this is shaped, tare out the container and add 150 g of soil and record the weight. • 10. Repeat this process for each sample to be tested (in triplet if possible). • 11. After all containers are completed, fill a mist spray bottle with de-ionized water and prime. • 12. […]

time to go into solution: ≤ 9 h | Nitrogen Retained (%) 9 Hours (9 hours): 0%
SMILES: NC(N)=O [UREA, urea]
